The target of assay [1] is T1, maize (Zea mays) class I EPSPS, wild type (WT), pMON70461, DNA SEQ ID NO:3 (Zea mays, UniProt O24566).
T1 construct: pMON70461
T1 sequence (O24566 with tags, fused parts or gaps): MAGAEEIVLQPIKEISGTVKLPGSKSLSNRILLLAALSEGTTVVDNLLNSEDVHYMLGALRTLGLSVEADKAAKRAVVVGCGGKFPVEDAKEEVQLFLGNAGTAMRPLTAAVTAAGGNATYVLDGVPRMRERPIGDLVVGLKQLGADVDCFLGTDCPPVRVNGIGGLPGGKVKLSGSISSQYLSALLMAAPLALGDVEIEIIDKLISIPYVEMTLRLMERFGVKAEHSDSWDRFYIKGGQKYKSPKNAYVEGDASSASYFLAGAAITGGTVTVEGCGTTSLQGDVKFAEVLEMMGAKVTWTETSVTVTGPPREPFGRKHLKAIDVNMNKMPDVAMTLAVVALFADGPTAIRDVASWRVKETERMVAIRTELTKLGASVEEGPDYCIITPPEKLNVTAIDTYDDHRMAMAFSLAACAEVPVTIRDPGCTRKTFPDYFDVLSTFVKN
Kind of assay: EPSPS steady-state kinetics, wild-type maize EPSPS. It counts as biochemical. On the procedure:
The wild type and variant EPSPS coding sequences were cloned into a pET-19b base vector (Novagen, Madison, Wis.). The plant (maize) class I EPSPS variants so created were assigned pMON plasmid numbers (Table 2). The variant EPSPS proteins were purified from the E. coli host using the protocols outlined in the pET system manual, 9th edition (Novagen) or by the following method. A single colony or a few microliters from a glycerol stock was inoculated into 4 mL LB medium containing 0.1 mg/mL carbenicillin antibiotic. The culture was incubated with shaking at 37 C for 4 hours. The cultures were stored at 4° C. overnight. The following morning, 1 mL of the overnight culture was used to inoculate 100 mL of fresh LB medium containing 0.1 mg/mL carbenicillin. The cultures were incubated with shaking at 37 C for 4-5 hours, then the cultures were placed at 4° C. for 5-10 minutes. The cultures were then induced with IPTG (1 mM final concentration) and incubated with shaking at 30 C for 4 hours or 20° C. overnight. The cells were harvested by centrifugation at 7000 rpm for 20 minutes at 4° C. The supernatant was removed and the cells were frozen at −70° C. until further use. The proteins were extracted by resuspending the cell pellet in BugBuster reagent (Novagen) using 5 mL reagent per gram of cells. Benzonase (125 Units) was added to the resuspension and the cell suspension was then incubated on a rotating mixer for 20 minutes at room temperature. The cell debris was removed by centrifugation at 10,000 rpm for 20 minutes at room temperature. The supernatant was passed through a 0.45 μm syringe-end filter and transferred to a fresh tube. A pre-packed columns containing 1.25 mL of His-Bind resin was equilibrated with 10 mL of 5 mM imidazole, 0.5 M NaCl, 20 mM Tris-HCl pH 7.9 (1× Binding Buffer). The column was then loaded with the prepared cell extract. After the cell extract had drained, the column was then washed with 10 mL of 1× Binding Buffer, followed with 10 mL of 60 mM imidazole, 0.5 M NaCl, 20 mM Tris-HCl pH 7.9 (1× Wash Buffer). […]

Assay [2] concerns the target T2, maize (Zea mays) class I EPSPS variant TIPS (T102I, P106S), pMON70462 (Zea mays, UniProt O24566, P106S/T102I).
T2 construct: pMON70462
T2 sequence (O24566 1-444 T102I/P106S): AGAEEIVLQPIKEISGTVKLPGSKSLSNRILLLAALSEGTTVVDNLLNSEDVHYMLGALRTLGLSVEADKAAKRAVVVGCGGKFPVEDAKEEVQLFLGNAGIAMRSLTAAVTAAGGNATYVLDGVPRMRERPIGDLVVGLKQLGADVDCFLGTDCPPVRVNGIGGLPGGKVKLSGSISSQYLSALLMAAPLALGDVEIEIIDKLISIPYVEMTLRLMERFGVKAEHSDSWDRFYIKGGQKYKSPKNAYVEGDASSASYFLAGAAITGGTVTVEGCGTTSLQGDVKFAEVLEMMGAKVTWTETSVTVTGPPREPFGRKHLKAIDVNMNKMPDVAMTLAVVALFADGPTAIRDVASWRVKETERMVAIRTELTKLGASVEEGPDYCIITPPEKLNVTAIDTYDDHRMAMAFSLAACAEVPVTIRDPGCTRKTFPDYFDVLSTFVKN
Kind of assay: EPSPS steady-state kinetics, TIPS variant. It counts as biochemical. On the procedure:
The wild type and variant EPSPS coding sequences were cloned into a pET-19b base vector (Novagen, Madison, Wis.). The plant (maize) class I EPSPS variants so created were assigned pMON plasmid numbers (Table 2). The variant EPSPS proteins were purified from the E. coli host using the protocols outlined in the pET system manual, 9th edition (Novagen) or by the following method. A single colony or a few microliters from a glycerol stock was inoculated into 4 mL LB medium containing 0.1 mg/mL carbenicillin antibiotic. The culture was incubated with shaking at 37 C for 4 hours. The cultures were stored at 4° C. overnight. The following morning, 1 mL of the overnight culture was used to inoculate 100 mL of fresh LB medium containing 0.1 mg/mL carbenicillin. The cultures were incubated with shaking at 37 C for 4-5 hours, then the cultures were placed at 4° C. for 5-10 minutes. The cultures were then induced with IPTG (1 mM final concentration) and incubated with shaking at 30 C for 4 hours or 20° C. overnight. The cells were harvested by centrifugation at 7000 rpm for 20 minutes at 4° C. The supernatant was removed and the cells were frozen at −70° C. until further use. The proteins were extracted by resuspending the cell pellet in BugBuster reagent (Novagen) using 5 mL reagent per gram of cells. […]

The Ki is the equilibrium dissociation constant of an inhibitor or competing ligand from its target. For `O=C(O)CNCP(=O)(O)O` [glyphosate, N-phosphonomethylglycine], the Ki was determined as 0.5 ± 0.06 µM in assay [1] and 58 ± 14 µM in assay [2].

For the origin of these results see patent US8436159B2, “Glyphosate resistant class I 5-endolpyruvylshikimate-3-phosphate synthase (EPSPS)” (Monsanto Technology LLC, priority 2003, dated 2013).
